These results are taken from PMC6404510 (Neural Regeneration Research, 2019).

One series deals with NeuN+ neurons. Nature of the series: Fluorescence tracing of intranasal Alex546-Ins in rat brain sections. Format: in vivo. As to conditions: rat brain sections after intranasal Alex546-Ins.
For series [1] the following is noted: monkeys, intranasal administration; ref Thorne et al., 2008; cited from earlier work.

For “Alexa Fluor 546-labeled insulin [Alex546-Ins]”, in the series with NeuN+ neurons, the “Cell type binding Alex546-Ins (NeuN double-immunostaining)” value was “on the membrane of NeuN^+ neurons”.

B1: I^125-interferon-β1b (protein, UniProt P01574 22-187, looked up, variant C17S)
Interferon beta: MSYNLLGFLQRSSNFQSQKLLWQLNGRLEYCLKDRMNFDIPEEIKQLQQFQKEDAALTIYEMLQNIFAIFRQDSSSTGWNETIVENLLANVYHQINHLKTVLEEKLEKEDFTRGKLMSSLHLKRYYGRILHYLKAKEYSHCAWTIVRVEILRNFYFINRLTGYLRN
modifications: I-125 radiolabel
In the case of B1, the “Time of earliest detection in CSF” value in series [1] is at most 30 min.
